Assay results reported in patent US7635464B2, “Selective targeting of apoptotic cells” (New South Innovations Pty Limited, priority 2001, dated 2009).
Residues, ends and D or L forms follow the SMILES beside them. *: point of attachment. Cbz = O=C(OCc1ccccc1)*; CH2F = FC*

What was measured:
HT1080 cells [1] = assay: Confocal microscopy of GSAO- and annexin V-labelled cells; format: cell-based, human; settings: camptothecin-treated; 10 μM GSAO-F
Procedure: HT1080 cells were treated for 20 h with 1 μg.mL^−1 camptothecin, then detached with PBS containing 10 mM EDTA, washed with annexin V binding buffer, and incubated for 15 min in annexin V binding buffer containing 10 μM GSAO-F and 1:20 (v/v) Alexa594conjugated annexin V (Molecular Probes, Eugene, Oreg.). The cells were then washed twice with annexin V binding buffer and pipetted onto a microscope slide. Transverse cell sections were captured using an Olympus BX60 microscope and an Optiscan F900e confocal unit and software (Optiscan, Notting Hill, Austrlia).

HT1080 cells [2] = assay: Flow cytometry of GSAO- and annexin V-labeled cells; format: cell-based, human
Procedure: HT1080 cells were treated for 20 h with 1 μg.mL^−1 camptothecin (Calbiochem, San Diego, Calif.), then detached with PBS containing 2.5 mM EDTA and combined with cells that had detached during incubation. The cells were washed twice with annexin V binding buffer (10 mM Hepes, 140 mM NaCl, 2.5 mM CaCl2, pH 7.4), and 2×10^5 cells per treatment were incubated in 100 μL annexin V binding buffer containing 10 μM GSAO-F or GSAA-F for 15 min at room temperature with shaking. The cells were washed twice, then incubated for 15 min in 100 μL annexin V binding buffer containing 5 μl phycoerythrin-conjugated annexin V (annexin V-PE) (PharMingen, San Diego, Calif.) and 1 μl of a 100 μg.mL^−1 solution of propidium iodide (Molecular Probes, Eugene, Oreg.). The total volume was then made up to 500 μl with annexin V binding buffer, and the samples were transferred to ice. Flow cytometry was performed using a FACSstar flow cytometer (Beckton Dickson). Results are derived from 10^4 cells per sample. To test the effect of caspase inhibition on to GSAO-F uptake, cells were treated with camptothecin in the absence or presence of 10 μg.mL^−1 Z-VAD-FMK (carbobenzoxy-valyl-alanyl-aspartyl-[O-methyl]-fluoromethylketone) (Calbiochem-Novabiochem, San Diego, Calif.), then detached, washed and incubated in annexin V binding buffer containing 10 μM GSAO-F for 15 min. The cells were washed twice and subjected to flow cytometry.

HT1080 cells [3] = assay: Labelling of cells with GSAO-B (lysate SDS-PAGE, avidin-peroxidase blot, PDI Western blot); format: cell-based, human; settings: 5-fold molar excess (50 μM) of dimercaptopropanol
Procedure: HT1080 cells were for 20 h with 1 μg.mL^−1 camptothecin and labeled with 10 μM GSAO and annexin V-PE as described above for labelling with GSAO-F and annexin V-PE. Cells were sorted on the basis of their annexin V-PE fluorescence, washed three times with PBS and 4×10^4 cells were lysed in 40 μL of RIPA buffer (50 mM Tris-HCl, 0.5 M NaCl, 1% Triton X-100, 1% sodium deoxycholate, 0.1% SDS, 10 μM leupeptin, 10 μM aprotinin, 2 mM phenylmethylsulfonyl fluoride, 5 mM EDTA, pH 8.0) at 4° C. Equal amounts of lysate were electrophoresed on an 8-16% gradient SDS-polyacrylamide gel (Gradipore, Sydney), transferred to […] (PVDF) membrane (Millipore, Bedford, Mass.) and biotinylated proteins were detected with a 1:2000 dilution of avidin-peroxidase (Molecular Probes, Eugene, Oreg.). To identify proteins that had incorporated GSAO-B, 20 μl of RIPA lysate was incubated with 5 μl streptavidin-dynabeads (Dynal Biotech, Oslo, Norway) for 15 min at 4° C. The beads were then washed twice with RIPA buffer, resuspended in 20 μl SDS-PAGE loading buffer, resolved on SDS-PAGE, transferred to polyvinylidene difluoride membrane, and the PDI was detected by Western blot using 2 μg.mL^−1 of anti-PDI polyclonal antibodies (Donoghue et al., 2000) and 1:2000 dilution of goat anti-rabbit peroxidase-conjugated antibodies (Dako Corporation, Carpinteria, Calif.). […]

[4] = tested on: human BxPC-3 pancreatic carcinoma tumours; assay: In vivo near-infrared imaging of BxPC-3 tumours; parameters: species or system SCID mice; settings: 0.8 mg/kg S.C.
Procedure: (§1) C57BL/6 (Jackson Labs, Bar Harbor, ME) mice bearing S.C. Lewis lung tumours, SCID (Massachusetts General Hospital, Boston, Mass.) bearing S.C. BxPC3 tumours or TRAMP (Greenberg et al., 1995) mice were given 0.8 mg/kg GSAO-Cy™5.5, GSAA-Cy™5.5 or Cy™5.5 dye alone in 0.1 mL of PBS containing 20 mM glycine by S.C. injection in the right hind flank. The S.C. tumours were established in the proximal dorsum.
(§2) The imaging system utilised a Leica Microsystems fluorescence microscope (Allendale, N.J.) with a 100 W halogen lamp source and a filter system for CY™5.5 (Chroma Technology, Brattleboro, Vt.). Anaesthetised mice were restrained in a light proof box and fluorescence detected by a 12-bit monochrome charged coupled device (Photometrics, Tuscon, Ariz.). Exposure time was 8 seconds with images digitally acquired as 16-bit Tiff files in IPLab (Scanalytics, Fairfax, Va.). White light images of the tumours were also acquired.

[5] = tested on: murine Lewis lung tumours; assay: In vivo near-infrared imaging of Lewis lung tumours; parameters: species or system C57BL/6 mice; settings: 0.8 mg/kg S.C.
Procedure: as §1, §2

O=[As]c1ccc(NC(=O)CSC[C@H](NC(=O)CC[C@H](NC(=O)CCSCC(=O)Nc2ccc(-c3c4ccc(=O)cc-4oc4cc(O)ccc34)c(C(=O)O)c2)C(=O)O)C(=O)NCC(=O)O)cc1 (some centres unmarked) [GSAO-F]
distribution in annexin V-positive cells (HT1080 cells [1]): distributed in the cytoplasm
fluorescence in cells that did not label with annexin V (HT1080 cells [1]): negligible
increase in the proportion of cells whose fluorescein fluorescence was greater than 1027 units (HT1080 cells [2]; 10 μM label, 15 min, camptothecin-treated vs untreated cells): 8.6 fold
mean fluorescein fluorescence (HT1080 cells [2]; camptothecin-treated cell population, 10 μM label): 1400 units
mean fluorescein fluorescence (HT1080 cells [2]; untreated cells, 10 μM label): 255 units
binding to apoptotic and dead cells (HT1080 cells [2]; with annexin V-PE and propidium iodide): bound to both apoptotic and dead cells

COC(=O)C[C@H](NC(=O)[C@H](C)NC(=O)[C@@H](NC(=O)OCc1ccccc1)C(C)C)C(=O)CF [Z-VAD-FMK, carbobenzoxy-valyl-alanyl-aspartyl-[O-methyl]-fluoromethylketone, reference compound] (Cbz-Val-Ala-Asp(OMe)-CH2F)
effect on the increase in GSAO-F positive cells seen with camptothecin treatment (HT1080 cells [2]; Z-VAD-FMK 10 μg.mL−1 during camptothecin treatment): substantially blocked

CC[C@@]1(O)C(=O)OCc2c1cc1n(c2=O)Cc2cc3ccccc3nc2-1 [camptothecin, reference compound]
increase in the proportion of cells with phycoerythrin fluorescence greater than 100 fluorescence units (annexin V-positive) (HT1080 cells [2]; camptothecin 1 μg.mL−1, 20 h vs untreated): 7.3 fold

OCC(S)CS (centres unmarked) [dimercaptopropanol, 2,3-dimercaptopropanol, reference compound]
effect on labelling of apoptotic cellular proteins by GSAO-B (HT1080 cells [3]): ablated

Cy™5.5
tumour labelling at 24 hours [4]: Neither GSAA-Cy™5.5 (FIG. 11d(B)) nor Cy™5.5 (FIG. 11d(D)) labelled BxPC3 tumours
labelling of Lewis lung tumours by controls [5]: Neither GSAA-Cy™5.5 nor Cy™5.5 labelled
